Source: patent US8324253B2, “Crystalline modification of 4-(N-methyl-Z-chloro-5pyridy methylamino)-2, 5-dihydrofuran-2-on” (Bayer Cropscience AG, priority 2006, dated 2012)

What was measured:
Nilaparvata lugens = Nilaparvata lugens test (foliar application), outdoor trial rice, Philippines; format: in vivo
Description: Action of the crystalline modification I of the compound of the formula (I) against plant-damaging insects/outdoor trial rice, Philippines
Nilaparvata lugens Test (Foliar Application)
To produce a suitable preparation of active compound, the oil-based suspension concentrate prepared according to Example 2.3 (OD 100 formulation) was diluted with water to the desired concentration. After the desired period of time, the kill in % was determined 100% means that all leafhoppers have been killed; 0% means that none of the leafhoppers have been killed.

[1] = Solid-state properties of the crystalline modifications (stability, moisture uptake, grindability); format: physicochemical

SMILES | Kill rate in % after 14 days (Nilaparvata lugens; Active compound concentration 200 g/ha, foliar application of OD 100 formulation of Example 2.3 diluted with water, rice, outdoor trial, 100% = all leafhoppers killed) | activity against Nilaparvata lugens (in words) (Nilaparvata lugens; foliar application, outdoor trial rice) | thermodynamic stability of the crystalline modification [1] | grindability ([1]; compared to other crystalline modifications) | tendency to absorb atmospheric moisture ([1]; compared to the crystalline modification II) | conversion into another crystalline modification on storage ([1]; prolonged storage)
CN(Cc1ccc(Cl)nc1)C1=CC(=O)OC1 [crystalline modification I, 4-{[(6-chloropyrid-3-yl)methyl](methyl)amino}furan-2(5H)-one] | 100% | good activity | thermodynamically stable | easier to comminute/grind | reduced tendency to absorb atmospheric moisture | does not convert into another crystalline modification
CN(Cc1ccc(Cl)nc1)C1=CC(=O)OC1 [crystalline modification II, 4-{[(6-chloropyrid-3-yl)methyl](methyl)amino}furan-2(5H)-one, reference compound] | – | – | metastable | – | – | –
